Source: patent publication US20220096515A1, “Methods and Formulations for Preventing Neurological or Psychiatric Disorders” (Huntington Medical Research Institutes, priority 2020, published 2022)

Key:
P2X4 = P2X4 mRNA and protein expression in endothelial cells after prenatal treatment; assay type: in vivo, mouse; settings: after six-day treatment paradigm
Protocol: Primary culture of endothelial cells and endothelial cell staining: Embryonic brains were dissected under a stereo-microscope, after the NAD^+ treatment paradigm and the telencephalon was removed. Pial membranes were peeled off. Telencephalon without pial membranes from the periventricular region was pooled. Purity of endothelial cell cultures was established with endothelial cell markers and determined to be one hundred percent. Isolation and culture of endothelial cells were performed according to published methodology. Periventricular endothelial cells were prepared from CD1 (wild type), saline-treated Gabrb3^fl/fl, saline-treated Gabrb3^ECKO, and NAD^+-treated Gabrb3^ECKO embryos. […]
Quantitative real-time PCR: RT was performed by using iScript Reverse Transcription Supermix kit (Bio-Rad). […] The relative gene expression and subsequent fold changes among different samples were determined according to published methodology.
An important aspect that influences endothelial cell proliferation is Ca^2+ influx, which is important for cell cycle progression in the neocortex. […] Therefore, P2X4 expression at both mRNA and protein levels in periventricular endothelial cells were evaluated, prepared after the six-day saline and NAD^+ treatment paradigm (FIGS. 11J-11O). […]

[1] = test system: neuronal cells isolated from the E15 CD1 forebrain; assay: Neuronal cell proliferation and long-distance migration in vitro; assay type: cell-based, mouse
Protocol: Isolation and primary culture of neuronal cells: Primary culture of embryonic GABAergic neurons from CD1 telencephalon or after the saline or NAD+ treatment paradigms were performed using established methods. Briefly, embryonic brains were extracted under a stereo microscope and placed into cold PBS. After removal of the pial membrane, the telencephalon was dissected from each embryonic brain. The telencephalon was minced into 1-2 mm slices in cold PBS. Minced telencephalon was treated with 0.1× trypsin/EDTA at 37° C. for 5 min. Trypsin treatment was stopped by adding FBS-DMEM media and DNase I consecutively. Dissociated cells were filtered with a 40 μm cell strainer and finally filtered cells were cultured in poly-D-lysine coated culture dishes with Neurobasal medium (Life technologies) with 1× B-27 (Life technologies) and 1× Glutamax (Life technologies).
Neuronal migration assay: In preparation for cell migration assays, one well square culture inserts (ibidi GmbH) were placed in the center of a poly-Ornithine/Laminin coated 35 mm dish, to make a small rectangular patch that is labeled outside the dish. Embryonic neurons prepared from the saline and NAD+ treated groups were seeded in the inserts in Neurobasal medium, supplemented with 1× B-27 and 1× Glutamax. After the cells had attached, the inserts were removed to initiate cell migration in all 4 quadrants of the dish. After 24 hours, cells were fixed and labeled with anti-β-Tubulin antibody (1:2000, Biolegend). Neuronal migration was assessed by measuring the distance between the final positions of cells from the border of the rectangular patch was outlined on the first day, using ImageJ software.
In one experiment, periventricular endothelial cells were isolated from E15 wildtype (CD1) forebrain and tested the effect of NAD^+ addition in vitro. Exogenous addition of 100 μM NAD^+ was able to initiate significant endothelial cell proliferation within 2 days of culture and a 35 mm culture dish was confluent within 4-6 days (FIGS. 2A-2D). […]

NC(=O)c1ccc[n+]([C@@H]2O[C@H](COP(=O)([O-])OP(=O)(O)OC[C@H]3O[C@@H](n4cnc5c(N)ncnc54)[C@H](O)[C@@H]3O)[C@@H](O)[C@H]2O)c1 [NAD^+]
P2X4 mRNA and protein expression (P2X4): its expression was rescued
neuronal cell proliferation ([1]; NAD^+ addition): an increase in cell proliferation
long-distance migration of neuronal cells ([1]; NAD^+ addition, neurons alone): increased long-distance migration of neuronal cells
long-distance migration of neuronal cells ([1]; neurons seeded on periventricular endothelial cells): more robust
